Assay results from US10821115B2, “Compounds that inhibit Mcl-1 protein” (priority 2017, dated 2020).

Experiments:
[1] = biological target: recombinant human Mcl-1 (residues 171-327) / Bim interaction (Homo sapiens (Human), UniProt Q07820); assay: biochemical; format: binding; settings: 0.1 nM Mcl-1(171-327), 0.05 nM biotin-Bim (51-76); read-out: Mcl-1 HTRF IC50
Procedure: The inhibition of the Mcl-1/Bim interaction was measured using a time-resolved fluorescence resonance energy transfer (TR-FRET) assay. […] The TR-FRET assay was conducted in a 384-well white OptiPlate™ (PerkinElmer, Waltham, Mass.) in a total volume of 40 μL. The reaction mixture contained 0.1 nM Mcl-1(171-327), 0.05 nM biotin-Bim (51-76), 0.05 nM LANCE® Eu-W1024 Anti-6×His (PerkinElmer), 0.072 nM Streptavidin-Xlent (Cisbio, Bedford, Mass.), and serially diluted test compounds in the binding buffer of 20 mM Hepes, pH 7.5, 150 mM NaCl, 0.016 mM Brij®35, and 1 mM dithiothreitol. Test compounds were pre-incubated with Mcl-1(171-327) and biotin-Bim (51-76) for 60 min before addition of the detection mixture (LANCE® Eu-W1024 Anti-6×His and Streptavidin-Xlent). The reaction plates were further incubated overnight and then were read on an Envision® multimode reader (PerkinElmer). Fluorescence signals were measured at 620 nm (40-nm bandwidth) and 665 nm (7.5-nm bandwidth) with a 60 is delay after excitation at 320 nm (75-nm bandwidth). The signal ratio at 665/620 nm corresponded to the Mcl-1/Bim interaction and was used in all data analyses. The IC50 values of test compounds were determined from duplicate data by analyzing competition curves using a four-parameter sigmoidal model in GraphPad Prism (GraphPad Software, San Diego, Calif.) or in Genedata Screener® (Genedata, Basel, Switzerland).

[2] = test system: human multiple myeloma cell line, OPM-2; assay: Cell viability assay (OPM-2 10 FBS), CellTiter-Glo; format: cell-based; settings: Homo sapiens, OPM-2, 16 h, read-out: OPM-2 10% FBS IC50 IP, OPM-2 cells, 10% FBS, 16 h incubation
Outline: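 Steps: plate cells at 3000/well in 10% FBS growth medium, add serially diluted compound, incubate 16 h at 37 °C with 5% CO2, add detection reagent and read luminescence after 25 min. A 4-parameter logistic model gives IC50.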

Chain of recombinant human Mcl-1 (residues 171-327) / Bim interaction (Q07820 171-327): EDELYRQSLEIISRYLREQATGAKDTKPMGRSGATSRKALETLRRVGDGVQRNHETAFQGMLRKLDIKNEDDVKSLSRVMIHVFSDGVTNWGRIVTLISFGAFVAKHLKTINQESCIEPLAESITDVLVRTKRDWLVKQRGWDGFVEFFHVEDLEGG

| SMILES | IC50 [1] [nM] | IC50 [2] [nM] |
| --- | --- | --- |
| CCO[C@]1(CN2CCN3CCOC[C@@H]3C2)/C=C/C[C@H](C)[C@@H](CC2CCC2)S(=O)(=O)NC(=O)c2ccc3c(c2)N(C[C@@H]2CC[C@H]21)C[C@@]1(CCCc2cc(Cl)ccc21)CO3 [Example 45, (1S,3′R,6′R,7′R,8′E,11′S,12′R)-6-chloro-12′-(cyclobutylmethyl)-7′-ethoxy-7′-((9aS)-hexahydropyrazino[2,1-c][1,4]oxazin-8(1H)-ylmethyl)-11′-methyl-3,4-dihydro-2H,15′H-spiro[naphthalene-1,22′-[20]oxa[13]thia[1,14]diazatetracyclo [14.7.2.0~3,6~.0~19,24~]pentacosa[8,16,18,24]tetraen]-15′-one 13′,13′-dioxide] | 0.245 | 891 |
| C=CCO[C@]1(CN2CCN3CCOC[C@@H]3C2)/C=C/C[C@H](C)[C@@H](C)S(=O)(=O)NC(=O)c2ccc3c(c2)N(C[C@@H]2CC[C@H]21)C[C@@]1(CCCc2cc(Cl)ccc21)CO3 [Example 46, (1S,3′R,6′R,7′R,8′E,11′S,12′R)-6-chloro-7′-((9aS)-hexahydropyrazino[2,1-c][1,4]oxazin-8(1H)-ylmethyl)-11′,12′-dimethyl-7′-(2-propen-1-yloxy)-3,4-dihydro-2H,15′H-spiro[naphthalene-1,22′-[20]oxa[13]thia[1,14]diazatetracyclo [14.7.2.0~3,6~.0~19,24~]pentacosa[8,16,18,24]tetraen]-15′-one 13′,13′-dioxide] | 0.107 | 167 |
| CC(C)O[C@]1(CN2CCN3CCOC[C@@H]3C2)/C=C/C[C@H](C)[C@@H](C)S(=O)(=O)NC(=O)c2ccc3c(c2)N(C[C@@H]2CC[C@H]21)C[C@@]1(CCCc2cc(Cl)ccc21)CO3 [Example 47, (1S,3′R,6′R,7′R,8′E,11′S,12′R)-6-chloro-7′-((9aS)-hexahydropyrazino[2,1-c][1,4]oxazin-8(1H)-ylmethyl)-11′,12′-dimethyl-7′-(1-methylethoxy)-3,4-dihydro-2H,15′H-spiro[naphthalene-1,22′-[20]oxa[13]thia[1,14]diazatetracyclo [14.7.2.0~3,6~.0~19,24~]pentacosa[8,16,18,24]tetraen]-15′-one 13′,13′-dioxide] | 0.131 | 285 |
| CCCCO[C@]1(CN2CCN3CCOC[C@@H]3C2)/C=C/C[C@H](C)[C@@H](C)S(=O)(=O)NC(=O)c2ccc3c(c2)N(C[C@@H]2CC[C@H]21)C[C@@]1(CCCc2cc(Cl)ccc21)CO3 [Example 48, (1S,3′R,6′R,7′R,8′E,11′S,12′R)-7′-butoxy-6-chloro-7′-((9aS)-hexahydropyrazino[2,1-c][1,4]oxazin-8(1H)-ylmethyl)-11′,12′-dimethyl-3,4-dihydro-2H,15′H-spiro[naphthalene-1,22′-[20]oxa[13]thia[1,14]diazatetracyclo [14.7.2.0~3,6~.0~19,24~]pentacosa[8,16,18,24]tetraen]-15′-one 13′,13′-dioxide] | 0.14 | 407 |
| C[C@@H]1[C@@H](C)C/C=C/[C@](CN2CCN3CCOC[C@@H]3C2)(OCC(F)(F)F)[C@@H]2CC[C@H]2CN2C[C@@]3(CCCc4cc(Cl)ccc43)COc3ccc(cc32)C(=O)NS1(=O)=O [Example 49, (1S,3′R,6′R,7′S,8′E,11′S,12′R)-6-chloro-7′-((9aS)-hexahydropyrazino[2,1-c][1,4]oxazin-8(1H)-ylmethyl)-11′,12′-dimethyl-7′-(2,2,2-trifluoroethoxy)-3,4-dihydro-2H,15′H-spiro[naphthalene-1,22′-[20]oxa[13]thia[1,14]diazatetracyclo [14.7.2.0~3,6~.0~19,24~]pentacosa[8,16,18,24]tetraen]-15′-one 13′,13′-dioxide] | 0.087 | 185 |
| C[C@@H]1[C@@H](C)C/C=C/[C@@](CN2CCN3CCOC[C@@H]3C2)(OCC(F)(F)F)[C@@H]2CC[C@H]2CN2C[C@@]3(CCCc4cc(Cl)ccc43)COc3ccc(cc32)C(=O)NS1(=O)=O [Example 50, (1S,3′R,6′R,7′R,8′E,11′S,12′R)-6-chloro-7′-((9aS)-hexahydropyrazino[2,1-c][1,4]oxazin-8(1H)-ylmethyl)-11′,12′-dimethyl-7′-(2,2,2-trifluoroethoxy)-3,4-dihydro-2H,15′H-spiro[naphthalene-1,22′-[20]oxa[13]thia[1,14]diazatetracyclo [14.7.2.0~3,6~.0~19,24~]pentacosa[8,16,18,24]tetraen]-15′-one 13′,13′-dioxide] | 0.736 | 1530 |
| CC(C)O[C@]1(CN2CCN(C(C)C)[C@H](C)C2)/C=C/C[C@H](C)[C@@H](C)S(=O)(=O)NC(=O)c2ccc3c(c2)N(C[C@@H]2CC[C@H]21)C[C@@]1(CCCc2cc(Cl)ccc21)CO3 [Example 51] | 0.072 | 99 |
| CO[C@@]1(CN2CCOCC2)/C=C/C[C@H](C)[C@@H](C)S(=O)(=O)NC(=O)c2ccc3c(c2)N(C[C@@H]2CC[C@H]21)C[C@@]1(CCCc2cc(Cl)ccc21)CO3 [Example 52, (1S,3′R,6′R,7′S,8′E,11′S,12′R)-6-chloro-7′-methoxy-11′,12′-dimethyl-7′-(4-morpholinylmethyl)-3,4-dihydro-2H,15′H-spiro[naphthalene-1,22′-[20]oxa[13]thia[1,14]diazatetracyclo [14.7.2.0~3,6~.0~19,24~]pentacosa[8,16,18,24]tetraen]-15′-one 13′,13′-dioxide] | 0.522 | 330 |
| CO[C@]1(CN2CCOCC2)/C=C/C[C@H](C)[C@@H](C)S(=O)(=O)NC(=O)c2ccc3c(c2)N(C[C@@H]2CC[C@H]21)C[C@@]1(CCCc2cc(Cl)ccc21)CO3 [Example 53, (1S,3′R,6′R,7′R,8′E,11′S,12′R)-6-chloro-7′-methoxy-11′,12′-dimethyl-7′-(4-morpholinylmethyl)-3,4-dihydro-2H,15′H-spiro[naphthalene-1,22′-[20]oxa[13]thia[1,14]diazatetracyclo [14.7.2.0~3,6~.0~19,24~]pentacosa[8,16,18,24]tetraen]-15′-one 13′,13′-dioxide] | 0.336 | 290 |
| COCCN1CCN(C[C@@]2(OC)/C=C/C[C@H](C)[C@@H](C)S(=O)(=O)NC(=O)c3ccc4c(c3)N(C[C@@H]3CC[C@H]32)C[C@@]2(CCCc3cc(Cl)ccc32)CO4)CC1=O [Example 54, (1S,3′R,6′R,7′R,8′E,11′S,12′R)-6-chloro-7′-methoxy-7′-((4-(2-methoxyethyl)-3-oxo-1-piperazinyl)methyl)-11′,12′-dimethyl-3,4-dihydro-2H,15′H-spiro[naphthalene-1,22′-[20]oxa[13]thia[1,14]diazatetracyclo [14.7.2.0~3,6~.0~19,24~]pentacosa[8,16,18,24]tetraen]-15′-one 13′,13′-dioxide] | 0.173 | 129 |
| COCCN1CCN(C[C@]2(OC)/C=C/C[C@H](C)[C@@H](C)S(=O)(=O)NC(=O)c3ccc4c(c3)N(C[C@@H]3CC[C@H]32)C[C@@]2(CCCc3cc(Cl)ccc32)CO4)CC1=O [Example 55, (1S,3′R,6′R,7′S,8′E,11′S,12′R)-6-chloro-7′-methoxy-7′-((4-(2-methoxyethyl)-3-oxo-1-piperazinyl)methyl)-11′,12′-dimethyl-3,4-dihydro-2H,15′H-spiro[naphthalene-1,22′-[20]oxa[13]thia[1,14]diazatetracyclo [14.7.2.0~3,6~.0~19,24~]pentacosa[8,16,18,24]tetraen]-15′-one 13′,13′-dioxide] | 0.162 | 80 |
| CO[C@@]1(CN2CCN3CCOC[C@@H]3C2)/C=C/C[C@H](C)[C@@H](C)S(=O)(=O)NC(=O)c2ccc3c(c2)N(C[C@@H]2CC[C@H]21)C[C@@]1(CCCc2cc(Cl)ccc21)CO3 [Example 56, (1S,3′R,6′R,7′S,8′E,11′S,12′R)-6-chloro-7′-((9aS)-hexahydropyrazino[2,1-c][1,4]oxazin-8(1H)-ylmethyl)-7′-methoxy-11′,12′-dimethyl-3,4-dihydro-2H,15′H-spiro[naphthalene-1,22′-[20]oxa[13]thia[1,14]diazatetracyclo [14.7.2.0~3,6~.0~19,24~]pentacosa[8,16,18,24]tetraen]-15′-one 13′,13′-dioxide] | 0.083 | 79 |
| CO[C@@]1(CN2CCN3CCOC[C@H]3C2)/C=C/C[C@H](C)[C@@H](C)S(=O)(=O)NC(=O)c2ccc3c(c2)N(C[C@@H]2CC[C@H]21)C[C@@]1(CCCc2cc(Cl)ccc21)CO3 [Example 57, (1S,3′R,6′R,7′S,8′E,11′S,12′R)-6-chloro-7′-((9aR)-hexahydropyrazino[2,1-c][1,4]oxazin-8(1H)-ylmethyl)-7′-methoxy-11′,12′-dimethyl-3,4-dihydro-2H,15′H-spiro[naphthalene-1,22′-[20]oxa[13]thia[1,14]diazatetracyclo [14.7.2.0~3,6~.0~19,24~]pentacosa[8,16,18,24]tetraen]-15′-one 13′,13′-dioxide] | 0.258 | 90 |
| CO[C@]1(CN2CCN3CCOC[C@H]3C2)/C=C/C[C@H](C)[C@@H](C)S(=O)(=O)NC(=O)c2ccc3c(c2)N(C[C@@H]2CC[C@H]21)C[C@@]1(CCCc2cc(Cl)ccc21)CO3 [Example 58, (1S,3′R,6′R,7′R,8′E,11′S,12′R)-6-chloro-7′-((9aR)-hexahydropyrazino[2,1-c][1,4]oxazin-8(1H)-ylmethyl)-7′-methoxy-11′,12′-dimethyl-3,4-dihydro-2H,15′H-spiro[naphthalene-1,22′-[20]oxa[13]thia[1,14]diazatetracyclo [14.7.2.0~3,6~.0~19,24~]pentacosa[8,16,18,24]tetraen]-15′-one 13′,13′-dioxide] | 0.719 | 95 |
